≈ marks a conversion by molar mass, not a printed value. Where two headings read alike, the source gives them in different places.
What was measured:
Assay in all cases: Minimum Inhibitory Concentration (MIC), agar plate incubation
Type in all cases: cell-based
[1] = tested on: Acinetobacter baumannii SR24396
Method: (§1) Measurement of Minimum Inhibitory Concentration (MIC, microg/ml) was conducted according to the standard method of the Japan Society for Chemotherapy, and the amount of bacteria for inoculation was 1000 cfu/spot, and sensitive disc medium was used as the test medium, and conducted using agar plate incubation.
(§2) In the tables, a unit of the values of inhibitory activity is microg/ml (μg/ml).
(§3) Bacterial strains described in the above tables and enzyme (beta-lactamase) produced thereby are explained in Table 7.

[2] = tested on: Stenotrophomonas maltophilia SR21970
Method: as §1, §2, §3

[3] = tested on: Pseudomonas aeruginosa SR24
Method: as §1, §2, §3

[4] = tested on: Klebsiella pneumoniae ATCC 700603
Method: as §1, §2, §3

[5] = tested on: Pseudomonas aeruginosa SR27060
Method: as §1, §2, §3

[6] = Acinetobacter baumannii SR24396 (no enzyme), 1000 cfu/spot, sensitive disc medium, read-out: Minimum Inhibitory Concentration (MIC)
[7] = Stenotrophomonas maltophilia SR21970 (L-1, MBL producer strain, carbapenem resistant), 1000 cfu/spot, sensitive disc medium, read-out: Minimum Inhibitory Concentration (MIC)
[8] = Pseudomonas aeruginosa SR24 (no enzyme, Ceftazidime sensitive strain), 1000 cfu/spot, sensitive disc medium, read-out: Minimum Inhibitory Concentration (MIC)
[9] = ATCC700603, Klebsiella pneumoniae ATCC 700603 (SHV-18, ESBL producer strain), 1000 cfu/spot, sensitive disc medium, read-out: Minimum Inhibitory Concentration (MIC)
[10] = Pseudomonas aeruginosa SR27060 (IMP-1, MBL producer strain, carbapenem resistant), 1000 cfu/spot, sensitive disc medium, read-out: Minimum Inhibitory Concentration (MIC)
[11] = Acinetobacter baumannii, SR24396, read-out: Minimum Inhibitory Concentration (MIC)
[12] = Stenotrophomonas maltophilia, SR21970, read-out: Minimum Inhibitory Concentration (MIC)
[13] = Pseudomonas aeruginosa, SR24, read-out: Minimum Inhibitory Concentration (MIC)
[14] = Klebsiella pneumoniae, ATCC700603, read-out: Minimum Inhibitory Concentration (MIC)
[15] = Pseudomonas aeruginosa, SR27060, read-out: Minimum Inhibitory Concentration (MIC)

Row | SMILES | MIC [1, 6] [µg/mL] | MIC [2, 7] [µg/mL] | MIC [3, 8] [µg/mL] | MIC [4, 9] [µg/mL] | MIC [5, 10] [µg/mL] | MIC [1, 11] [µg/mL] | MIC [2, 12] [µg/mL] | MIC [3, 13] [µg/mL] | MIC [4, 14] [µg/mL] | MIC [5, 15] [µg/mL]
1 | CC(C)(O/N=C(\C(=O)N[C@@H]1C(=O)N2C(C(=O)[O-])=C(C[N+]3(CCNC(=O)c4cc(Cl)c(O)c(O)c4Cl)CCCCC3)CS[C@H]12)c1csc(N)n1)C(=O)O [Compound I-19] | 0.125 (≈ 0.156 µM) | 0.25 (≈ 0.312 µM) | 0.063 (≈ 0.0787 µM) | 0.125 (≈ 0.156 µM) | 0.125 (≈ 0.156 µM) |  |  |  |  | 
2 | Nc1nc(/C(=N/OC2(C(=O)[O-])CC2)C(=O)N[C@@H]2C(=O)N3C(C(=O)O)=C(C[N+]4(CCNC(=O)c5ccc(O)c(O)c5Cl)CCCC4)CS[C@H]23)cs1 [II-2] | 0.125 (≈ 0.167 µM) | 0.5 (≈ 0.666 µM) | 0.125 (≈ 0.167 µM) | 0.5 (≈ 0.666 µM) | 0.25 (≈ 0.333 µM) |  |  |  |  | 
3 | C[C@H](O/N=C(\C(=O)N[C@@H]1C(=O)N2C(C(=O)[O-])=C(C[N+]3(CCNC(=O)c4ccc(O)c(O)c4Cl)CCCC3)CS[C@H]12)c1nc(N)sc1Cl)C(=O)[O-].[Na+] [Compound I-15] | 0.25 | 4 | 0.063 | 0.125 | 0.125 |  |  |  |  | 
4 | CC(C)[C@H](O/N=C(\C(=O)N[C@@H]1C(=O)N2C(C(=O)[O-])=C(C[N+]3(CCNC(=O)c4ccc(O)c(O)c4Cl)CCCC3)CS[C@H]12)c1csc(N)n1)C(=O)O [II-23] | 0.25 (≈ 0.326 µM) | 0.5 (≈ 0.653 µM) | 0.125 (≈ 0.163 µM) | 0.125 (≈ 0.163 µM) | 0.25 (≈ 0.326 µM) |  |  |  |  | 
5 | CC(C)(O/N=C(\C(=O)N[C@@H]1C(=O)N2C(C(=O)O)=C(C[N+]3(CCNC(=O)c4ccc(O)c(O)c4Cl)CC=CC3)CS[C@H]12)c1csc(N)n1)C(=O)[O-] [II-13] | 0.25 (≈ 0.333 µM) | 1 (≈ 1.33 µM) | 0.063 (≈ 0.084 µM) | 0.25 (≈ 0.333 µM) | 0.5 (≈ 0.666 µM) |  |  |  |  | 
6 | C[C@H](O/N=C(\C(=O)N[C@@H]1C(=O)N2C(C(=O)[O-])=C(C[N+]3(CCN(C)C(=O)c4ccc(O)c(O)c4)CCCC3)CS[C@H]12)c1nc(N)sc1Cl)C(=O)O [Compound I-25] | 0.5 (≈ 0.665 µM) |  | 0.125 (≈ 0.166 µM) | 0.5 (≈ 0.665 µM) | 0.25 (≈ 0.332 µM) |  |  |  |  | 
7 | COc1c(O)ccc(C(=O)NCC[N+]2(CC3=C(C(=O)[O-])N4C(=O)C(NC(=O)/C(=N\OC(C)(C)C(=O)O)c5csc(N)n5)C4SC3)CCCC2)c1Cl (centres unmarked) [Comparative Compound 1, reference compound] | 64 (≈ 83.5 µM) | 16 (≈ 20.9 µM) | 4 (≈ 5.22 µM) | 16 (≈ 20.9 µM) | 32 (≈ 41.8 µM) |  |  |  |  | 
8 | CC(C)(O/N=C(\C(=O)N[C@@H]1C(=O)N2C(C(=O)[O-])=C(C[N+]3(CCNC(=O)c4ccc(O)c(O)c4Cl)CCCC3)CS[C@H]12)c1nsc(N)n1)C(=O)O [Compound I-1] | 0.125 (≈ 0.166 µM) | 0.5 (≈ 0.664 µM) | 0.063 (≈ 0.0836 µM) | 0.5 (≈ 0.664 µM) | 0.25 (≈ 0.332 µM) |  |  |  |  | 
9 | Nc1nc(/C(=N/O[C@H](C(=O)O)c2ccccc2)C(=O)N[C@@H]2C(=O)N3C(C(=O)[O-])=C(C[N+]4(CCNC(=O)c5ccc(O)c(O)c5Cl)CCCC4)CS[C@H]23)cs1 [II-3] |  |  |  |  |  | 0.25 (≈ 0.312 µM) | 1 (≈ 1.25 µM) | 0.125 (≈ 0.156 µM) | 0.125 (≈ 0.156 µM) | 0.5 (≈ 0.625 µM)
10 | Nc1nc(/C(=N/OC2(C(=O)O)CCC2)C(=O)N[C@@H]2C(=O)N3C(C(=O)[O-])=C(C[N+]4(CCNC(=O)c5ccc(O)c(O)c5Cl)CCCC4)CS[C@H]23)cs1 [II-24] | 0.125 (≈ 0.164 µM) | 0.5 (≈ 0.654 µM) | 0.063 (≈ 0.0824 µM) | 0.125 (≈ 0.164 µM) | 0.5 (≈ 0.654 µM) |  |  |  |  | 
11 | CC(C)(O/N=C(\C(=O)N[C@@H]1C(=O)N2C(C(=O)[O-])=C(C[N+]3(CCNC(=O)c4ccc(O)c(O)c4Cl)CCCCCC3)CS[C@H]12)c1csc(N)n1)C(=O)O [Compound I-8] |  |  |  |  |  | 0.25 (≈ 0.32 µM) |  | 0.031 (≈ 0.0397 µM) | 0.125 (≈ 0.16 µM) | 0.125 (≈ 0.16 µM)
12 | CC(C)(O/N=C(\C(=O)N[C@@H]1C(=O)N2C(C(=O)[O-])=C(C[N+]3(CCNC(=O)c4ccc(O)c(O)c4Cl)CCCC3)CS[C@H]12)c1csc(N)n1)C(=O)O [Compound I-12] | 0.25 (≈ 0.332 µM) | 0.5 (≈ 0.665 µM) | 0.063 (≈ 0.0838 µM) | 0.25 (≈ 0.332 µM) | 0.125 (≈ 0.166 µM) |  |  |  |  | 
13 | CC(C)[C@H](O/N=C(\C(=O)N[C@@H]1C(=O)N2C(C(=O)[O-])=C(C[N+]34CCC(CNC(=O)c5ccc(O)c(O)c5Cl)(CC3)CC4)CS[C@H]12)c1csc(N)n1)C(=O)[O-].[Na+] [II-25] | 0.25 | 1 | 0.063 | 0.25 | 0.25 |  |  |  |  | 
14 | CC(C)(O/N=C(\C(=O)N[C@@H]1C(=O)N2C(C(=O)[O-])=C(C[N+]3(CCNC(=O)c4ccc(O)c(O)c4Cl)CCCCC3)CS[C@H]12)c1csc(N)n1)C(=O)O [Compound I-18] | 0.25 (≈ 0.326 µM) | 0.5 (≈ 0.653 µM) | 0.063 (≈ 0.0822 µM) | 0.125 (≈ 0.163 µM) | 0.25 (≈ 0.326 µM) |  |  |  |  | 
15 | C[C@H](O/N=C(\C(=O)N[C@@H]1C(=O)N2C(C(=O)[O-])=C(C[N+]3(CCNC(=O)c4ccc(O)c(O)c4Cl)CCCCC3)CS[C@H]12)c1nc(N)sc1Cl)C(=O)[O-].[Na+] [Compound I-22] | 0.25 | 4 | 0.063 | 0.125 | 0.125 |  |  |  |  | 
16 | C[C@H](O/N=C(\C(=O)N[C@@H]1C(=O)N2C(C(=O)[O-])=C(C[N+]3(CCNC(=O)c4ccc(O)c(O)c4Cl)CCCC3)CS[C@H]12)c1csc(N)n1)C(=O)O [II-22] | 0.125 (≈ 0.169 µM) | 2 (≈ 2.71 µM) | 0.125 (≈ 0.169 µM) | 0.5 (≈ 0.677 µM) | 0.25 (≈ 0.339 µM) |  |  |  |  | 
17 | C[C@H](O/N=C(\C(=O)N[C@@H]1C(=O)N2C(C(=O)[O-])=C(C[N+]3(CCNC(=O)c4cc(Cl)c(O)c(O)c4Cl)CCCCC3)CS[C@H]12)c1nc(N)sc1Cl)C(=O)[O-].[Na+] [Compound I-23] | 0.125 |  | 0.031 | 0.031 | 0.125 |  |  |  |  | 
18 | Nc1nc(/C(=N/O/C(=C/C(=O)O)C(=O)O)C(=O)N[C@@H]2C(=O)N3C(C(=O)O)=C(C[N+]4(CCNC(=O)c5ccc(O)c(O)c5Cl)CCCC4)CS[C@H]23)cs1 [II-10] | 0.25 | 1 | 0.125 | 0.5 | 0.25 |  |  |  |  | 
19 | C[C@@H](C[N+]1(CC2=C(C(=O)O)N3C(=O)[C@@H](NC(=O)/C(=N\OC(C)(C)C(=O)[O-])c4csc(N)n4)[C@H]3SC2)CCCC1)NC(=O)c1ccc(O)c(O)c1Cl [II-12] |  |  |  |  |  | 0.25 (≈ 0.326 µM) | 1 (≈ 1.31 µM) | 0.063 (≈ 0.0822 µM) | 0.25 (≈ 0.326 µM) | 0.25 (≈ 0.326 µM)
20 | C=C(O/N=C(\C(=O)N[C@@H]1C(=O)N2C(C(=O)[O-])=C(C[N+]3(CCNC(=O)c4ccc(O)c(O)c4Cl)CCCC3)CS[C@H]12)c1csc(N)n1)C(=O)O [II-1] | 0.125 (≈ 0.17 µM) | 2 (≈ 2.72 µM) | 0.125 (≈ 0.17 µM) | 0.5 (≈ 0.679 µM) | 0.25 (≈ 0.34 µM) |  |  |  |  | 
21 | NC(=O)C[C@H](O/N=C(\C(=O)N[C@@H]1C(=O)N2C(C(=O)[O-])=C(C[N+]3(CCNC(=O)c4ccc(O)c(O)c4Cl)CCCC3)CS[C@H]12)c1csc(N)n1)C(=O)O [II-4] |  |  |  |  |  | 0.25 (≈ 0.32 µM) | 1 (≈ 1.28 µM) | 0.125 (≈ 0.16 µM) | 0.5 (≈ 0.64 µM) | 0.25 (≈ 0.32 µM)
22 | C[C@H](O/N=C(\C(=O)N[C@@H]1C(=O)N2C(C(=O)[O-])=C(C[N+]3(CCCNC(=O)c4ccc(O)c(O)c4)CCCC3)CS[C@H]12)c1nc(N)sc1Cl)C(=O)O [Compound I-26] | 1 (≈ 1.33 µM) |  | 0.125 (≈ 0.166 µM) | 0.5 (≈ 0.665 µM) | 0.5 (≈ 0.665 µM) |  |  |  |  | 
23 | CC(C)(O/N=C(\C(=O)N[C@@H]1C(=O)N2C(C(=O)[O-])=C(C[N+]3(CCNC(=O)c4ccc(O)c(O)c4)CCCCC3)CS[C@H]12)c1csc(N)n1)C(=O)O [Compound I-17] | 0.5 (≈ 0.683 µM) | 0.5 (≈ 0.683 µM) | 0.063 (≈ 0.0861 µM) | 0.25 (≈ 0.342 µM) | 0.125 (≈ 0.171 µM) |  |  |  |  | 
24 | CC(C)(O/N=C(\C(=O)N[C@@H]1C(=O)N2C(C(=O)O)=C(C[N+]3(CCNC(=O)c4cc(Cl)c(O)c(O)c4Cl)CCCC3)CS[C@H]12)c1csc(N)n1)C(=O)O [Compound I-3] | 0.125 |  | 0.031 | 0.125 | 0.125 |  |  |  |  | 
25 | CC(C)(O/N=C(\C(=O)N[C@@H]1C(=O)N2C(C(=O)O)=C(C[N+]3(CCNC(=O)c4ccc(O)c(O)c4)CCCC3)CS[C@H]12)c1csc(N)n1)C(=O)O [Compound I-2] | 0.25 |  | 0.063 | 0.25 | 0.125 |  |  |  |  | 
